system: TNF-α; assay: Increase in plasma TNF-alpha induced by LPS; assay type: in vivo, mice; details: Mus musculus; mice; compounds 6 mg/kg 15 min before LPS
Protocol: Trunk blood was collected and centrifuged at 3000 rpm for 15 min at 4° C. Plasma was stored at −80° C. until measurement of TNFα was carried out. Plasma TNFα levels were assessed using an ELISA kit, following the manufacturer's instructions (Fisher Scientific, Catalog #E6473C).
In this example the inventors further analyzed the ability of pregnenolone to inhibit the effects of CB1 activation in the context of inflammation and fibrosis. […] TNF-alpha is one of the cellular responses to inflammatory stimuli more involved in promoting fibrosis.
Other pregnenolone derivatives (Table 4) for which the metabolism in downstream active steroids was reduced were tested for their ability to inhibit: 1. effects of the THC-induced cannabinoid tetrade (decrease in body temperature and in locomotor activity, (THC 10 mg/kg, compounds 6 mg/kg 15-30 min before THC) that is recognized as a sound method to evaluate the activation of the CB1 receptor; 2. THC-induced increase in food intake a typical effect of CB1 activation (THC between 0.5 and 1 mg/kg, compounds between 2 and 4 mg/kg 30 min before THC); 3. the increase in TNFalpha induced by LPS, another effects typical of CB1 […] (compounds 6 mg/kg 15 min before LPS). For each compound and each test independent groups of animals were used (at least n=6 per compound/per test).

SMILES	inhibition in vivo at 6 mg/kg
CO[C@H]1CC[C@@]2(C)C(=CCC3C2CC[C@@]2(C)C3CC[C@]2(C)C(C)=O)C1 (stereo partly drawn) [Compound 35, 3β-Methoxy-17α-methylpregnenolone]	57%

system: CHO cells; assay: Study of metabolism in vitro in CHO cells, steroids in culture medium by GC/MS; details: CHO cells
Protocol: Plasma, brain and culture medium levels of pregnenolone (5-Pregnen-3β-ol-20-one), allopregnanolone (3α-hydroxy-5α-pregnan-20-one), epiallopregnanolone (3β-hydroxy-5α-pregnan-ol-20-one), testosterone, and 5α dihydrotestosterone were determined by GC/MS according to the of estraction, purification and quantification protocol described previously (George O, et al., Biol Psychiatry. 2010 68: 956-63, Vallee M, et al., Anal Biochem. 2000, 287:153-66).
The CHO-K1 cell line (#CCL-61, ATCC-LGC, USA) derived as a subclone from the parental CHO cell line initiated from a biopsy of an adult Chinese hamster ovary was used. The CHO-K1 cells were seeded on 24-well plates (#353047, BD Biosciences, USA) to the appropriate concentration (25×10^4 cells/well) in fresh, antibiotic-free medium constituted by 90% DMEM-Glutamax; (#31966-21, Life technologies, USA) and 10% Fetal Bovine Serum (#10270-106, Life technologies, USA).
In this example the inventors further analyzed the metabolism of pregnenolone derivatives using an in vitro test in CHO cells. These cells derived from the ovary have all the enzymes needed to metabolize pregnenolone in down stream steroids.

SMILES	metabolism in downstream active steroids (Reduced metabolism / Metabolized)
CC(=O)[C@@]1(Cc2ccccc2)CCC2C3CC=C4C[C@@H](F)CC[C@]4(C)C3CC[C@@]21C (stereo partly drawn) [Compound 74, 17α-Benzyl-3β-fluoropregnenolone]	Reduced metabolism
CC(=O)[C@H]1CCC2C3CC[C@H]4C[C@@H](O)CC[C@]4(C)C3CC[C@@]21C (stereo partly drawn) [Compound 11, 5α-Pregnan-3β-ol-20-one (Epiallopregnanolone)]	Metabolized
C[C@]12CC[C@H](O)CC1=CCC1C2CC[C@]2(C)C(=O)CCC12 (stereo partly drawn) [Compound 50, 5-Androsten-3β-ol-17-one (DHEA), reference compound]	Metabolized
CCC1=CC[C@H]2[C@@H]3CC=C4C[C@@H](O)CC[C@]4(C)[C@H]3CC[C@]12C [Compound 6, 5,16-Pregnadien-3β-ol]	Metabolized
CC(=O)[C@]1(O)CCC2C3CC=C4C[C@@H](OC(=O)CCC(=O)O)CC[C@]4(C)C3CC[C@@]21C (stereo partly drawn) [Compound 23, 17α-Hydroxypregnenolone hemisuccinate]	Metabolized
CC(=O)[C@H]1CCC2C3CC=C4CCCC[C@]4(C)C3CC[C@@]21C (some centres unmarked) [Compound 37, 3-Dehydroxypregnenolone]	Metabolized
CO[C@H]1CC[C@@]2(C)C(=CCC3C2CC[C@@]2(C)C3CC[C@]2(C)C(C)=O)C1 (stereo partly drawn) [Compound 35, 3β-Methoxy-17α-methylpregnenolone]	Reduced metabolism
CC(=O)[C@H]1CC[C@H]2[C@@H]3CC=C4C[C@@H](OS(=O)(=O)[O-])CC[C@]4(C)[C@H]3CC[C@]12C.[Na+] [Compound 53, Pregnenolone sulfate sodium]	Metabolized
CC(=O)[C@@]1(Cc2ccccc2)CCC2C3CC=C4C[C@@H](OCc5ccccc5)CC[C@]4(C)C3CC[C@@]21C (stereo partly drawn) [Compound 63, 17α-Benzyl-3β-benzyloxypregnenolone]	Reduced metabolism
CC(=O)[C@@]1(C)CCC2C3CC=C4C[C@@H](OCc5ccccc5)CC[C@]4(C)C3CC[C@@]21C (stereo partly drawn) [Compound 42, 3β-Benzyloxy-17α-methylpregnenolone]	Reduced metabolism
CC(=O)[C@]1(O)CCC2C3CC=C4C[C@@H](O)CC[C@]4(C)C3CC[C@@]21C (stereo partly drawn) [Compound 22, 17α-Hydroxypregnenolone]	Metabolized
CC(=O)O[C@H]1CC[C@@]2(C)C(=CCC3C2CC[C@@]2(C)C3CC[C@@H]2C(C)=O)C1 (stereo partly drawn) [Compound 55, 3β-Acetoxypregnenolone]	Metabolized
C=CC[C@]1(C(C)=O)CCC2C3CC=C4C[C@@H](O)CC[C@]4(C)C3CC[C@@]21C (stereo partly drawn) [Compound 64, 17α-Allylpregnenolone]	Metabolized
C[C@]12CCC3C(CC[C@@H]4C[C@@H](O)CC[C@]34C)C1CC[C@@H]2C(=O)CO (stereo partly drawn) [Compound 75, 5α-Pregnan-3α,21-diol-20-one]	Metabolized
CC(=O)[C@@]1(Cc2ccccc2)CCC2C3CCC4=CC(=O)CC[C@]4(C)C3CC[C@@]21C (stereo partly drawn) [Compound 73, 17α-Benzylprogesterone]	Reduced metabolism
CNC(C)[C@H]1CC[C@H]2[C@@H]3CC=C4C[C@@H](O)CC[C@]4(C)[C@H]3CC[C@]12C (stereo partly drawn) [Compound 67, 20-Methylamino-5-pregnen-3β-ol]	Reduced metabolism
CO[C@H]1CC[C@@]2(C)C(=CCC3C2CC[C@@]2(C)C3CC[C@@H]2C(C)=O)C1 (stereo partly drawn) [Compound 33, 3β-Methoxypregnenolone]	Metabolized

SMILES	metabolism in downstream active steroids (Reduced metabolism / Metabolized)
C[C@@H](O)[C@H]1CCC2C3CCC4=CC(=O)CC[C@]4(C)C3CC[C@@]21C (stereo partly drawn) [Compound 19, 4-Pregnen-20β-ol-3-one]	Metabolized
C=CC[C@]1(C(C)=O)CCC2C3CC=C4C[C@@H](OC)CC[C@]4(C)C3CC[C@@]21C (stereo partly drawn) [Compound 69, 17α-Allyl-3β-methoxypregnenolone]	Reduced metabolism
C[C@@H](O)[C@H]1CCC2C3CC=C4C[C@@H](O)CC[C@]4(C)C3CC[C@@]21C (stereo partly drawn) [Compound 21, 5-Pregnen-3β,20β-diol]	Metabolized
CC(=O)C1=CCC2C3CC=C4C[C@@H](O)CC[C@]4(C)C3CC[C@]12C (stereo partly drawn) [Compound 7, 5,16-Pregnadien-3β-ol-20-one]	Metabolized
C[C@@H](O)[C@H]1CCC2C3CCC4=C[C@@H](O)CC[C@]4(C)C3CC[C@@]21C (stereo partly drawn) [Compound 13, 4-Pregnen-3β,20β-diol]	Metabolized
CC(=O)[C@H]1CCC2C3CCC4=C[C@@H](O)CC[C@]4(C)C3CC[C@@]21C (stereo partly drawn) [Compound 17, 4-Pregnen-3β-ol-20-one]	Metabolized
CC(O)C1=CC[C@H]2[C@@H]3CC=C4C[C@@H](O)CC[C@]4(C)[C@H]3CC[C@]12C (stereo partly drawn) [Compound 38, 5,16-Pregnadien-3β,20-diol]	Metabolized
C[C@]12CCC3C(CC[C@H]4C[C@@H](O)CC[C@]34C)C1CC[C@@H]2C(=O)CO (stereo partly drawn) [Compound 76, 5α-Pregnan 3β,21-diol-20-one]	Metabolized
C[C@]12CC[C@H]3[C@@H](CCC4=CC(=O)CC[C@@]43C)[C@@H]1CC[C@@H]2C(=O)CO [Compound 52, 4-Pregnen-21-ol-3,20-dione]	Metabolized
CC(=O)C1CCC2C3CC=C4C[C@@H](N)CC[C@]4(C)C3CC[C@]12C (stereo partly drawn) [Compound 66, 3β-Aminopregnenolone]	Metabolized
C[C@@H](O)[C@H]1CCC2C3CC[C@H]4C[C@@H](O)CC[C@]4(C)C3CC[C@@]21C (stereo partly drawn) [Compound 8, 5α-Pregnan-3β,20α-diol]	Metabolized
CCO[C@H]1CC[C@@]2(C)C(=CCC3C2CC[C@@]2(C)C3CC[C@@H]2C(C)=O)C1 (stereo partly drawn) [Compound 34, 3β-Ethoxypregnenolone]	Metabolized
CO[C@H]1CC[C@@]2(C)C(=CCC3C2CC[C@@]2(C)C3CC[C@]2(Cc2ccccc2)C(C)=O)C1 (stereo partly drawn) [Compound 70, 17α-benzyl-3β-methoxypregnenolone]	Reduced metabolism
CC(=O)C1CCC2C3CC[C@H]4C[C@@H](OC(=O)CCC(=O)O)CC[C@]4(C)C3CC[C@]12C (stereo partly drawn) [Compound 10, 5α-Pregnan-3α-ol-20-one hemisuccinate (Allopregnanolone hemisuccinate)]	Metabolized
CCOC1(C(C)=O)CCC2C3CC=C4C[C@@H](O)CC[C@]4(C)C3CC[C@@]21C (some centres unmarked) [Compound 71, 17-Ethoxypregnenolone]	Metabolized
C[C@@H](O)[C@@]1(O)CCC2C3CCC4=CC(=O)CC[C@]4(C)C3CC[C@@]21C (stereo partly drawn) [Compound 15, 4-Pregnen-17α,20β-diol-3-one]	Metabolized
C[C@]12CC[C@H](O)CC1=CCC1C2CC[C@@]2(C)C1CC[C@@H]2C(=O)CO (stereo partly drawn) [Compound 26, 5-Pregnen-3β,21-diol-20-one]	Metabolized

target: CB1 receptor (Mus musculus, UniProt P47746); assay: THC-induced cannabinoid tetrad (body temperature, locomotor activity, catalepsy, analgesia); assay type: in vivo, mice; parameters: tissue Charles River Laboratories (France) (animals); host or cells: living mice, whole animal; details: AMG 50 mg/kg ip 30 min before THC
Sequence (P47746 whole entry): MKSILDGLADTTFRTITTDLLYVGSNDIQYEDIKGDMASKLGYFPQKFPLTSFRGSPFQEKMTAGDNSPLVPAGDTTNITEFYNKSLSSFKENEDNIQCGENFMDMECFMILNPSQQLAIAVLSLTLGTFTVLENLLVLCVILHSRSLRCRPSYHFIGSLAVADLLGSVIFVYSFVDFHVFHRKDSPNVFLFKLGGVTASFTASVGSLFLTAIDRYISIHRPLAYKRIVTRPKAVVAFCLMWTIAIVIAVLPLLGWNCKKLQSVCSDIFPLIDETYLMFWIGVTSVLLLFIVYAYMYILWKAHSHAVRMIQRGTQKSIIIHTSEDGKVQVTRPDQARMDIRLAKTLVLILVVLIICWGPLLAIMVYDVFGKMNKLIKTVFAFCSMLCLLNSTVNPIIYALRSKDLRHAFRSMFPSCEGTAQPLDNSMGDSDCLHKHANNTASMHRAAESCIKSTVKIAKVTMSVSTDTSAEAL

SMILES	effect on behavioural effects of THC (tetrad)
CCC1(c2ccc(N)cc2)CCC(=O)NC1=O (centres unmarked) [AMG, aminoglutethimide, reference compound]	strongly increased all the behavioural effect of THC

same assay, conditions: mice; THC 10 mg/kg; compounds 6 mg/kg 15-30 min before THC

SMILES	% Inhibition temperature decrease	% increase in motor activity
CO[C@H]1CC[C@@]2(C)C(=CCC3C2CC[C@@]2(C)C3CC[C@]2(C)C(C)=O)C1 (stereo partly drawn) [Compound 35, 3β-Methoxy-17α-methylpregnenolone]	33%, P < 0.01	−32%, P > 0.24
CNC(C)[C@H]1CC[C@H]2[C@@H]3CC=C4C[C@@H](O)CC[C@]4(C)[C@H]3CC[C@]12C (stereo partly drawn) [Compound 67, 20-Methylamino-5-pregnen-3β-ol]	28%, P < 0.05	−20%, P > 0.35
C=CC[C@]1(C(C)=O)CCC2C3CC=C4C[C@@H](OC)CC[C@]4(C)C3CC[C@@]21C (stereo partly drawn) [Compound 69, 17α-Allyl-3β-methoxypregnenolone]	4%, P > 0.39	−49%, P > 0.1
CO[C@H]1CC[C@@]2(C)C(=CCC3C2CC[C@@]2(C)C3CC[C@]2(Cc2ccccc2)C(C)=O)C1 (stereo partly drawn) [Compound 70, 17α-benzyl-3β-methoxypregnenolone]	8%, P > 0.49	2%, P > 0.48

Source: patent publication US10150793B2, “Antagonists of CB1 receptor” (INSERM (Institut National de la Santé et de la Recherche …, priority 2011, dated 2018)
